Data reported in PMC9862759 (Viruses, 2023).
Read-outs that look alike come from different tables or passages of the source.

Experiments:
[1] = tested on: SARS-CoV-2 pseudovirus; details: for IC50: read-out: IC50 (inhibition of pseudovirus entry into host cells)
[2] = tested on: HEK 293 cells; assay: MTT cytotoxicity on human normal cell line HEK 293 (24 h); format: cell-based; details: Homo sapiens, HEK293, 24 h, read-out: IC50 Values of Human Normal Cell Lines, HEK 293
[3] = tested on: HEK-293T-ACE2^h cells; assay: MTT cytotoxicity assay on host cells (4 h); format: cell-based, human; details: MTT, 4 h
[4] = tested on: LO2 cells; assay: MTT cytotoxicity on human normal cell line LO2 (24 h); format: cell-based; details: Homo sapiens, L02, 24 h, read-out: IC50 Values of Human Normal Cell Lines, LO2
[5] = tested on: Beas-2B cells; assay: MTT cytotoxicity on human normal cell line Beas-2B (24 h); format: cell-based; details: Homo sapiens, BEAS-2B, 24 h, read-out: IC50 Values of Human Normal Cell Lines, Beas-2B
[6] = tested on: SARS-CoV-2 pseudovirus; assay: microbe, parasite or virus in culture; details: Severe acute respiratory syndrome-related coronavirus, read-out: IC50 (inhibition of pseudovirus entry into host cells)

SMILES	SI (ratio of TC50 to IC50) [1]	IC50 [2] [µM]	CC0 (maximum nontoxic concentration) [3] [µM]	TC50 (concentration reducing cell viability by 50%) [3] [µM]	IC50 [4] [µM]	IC50 [5] [µM]	IC50 [6] [µM]	IC50 [1] [µM]
O=c1cc(-c2ccccc2)oc2cc(O)c(O)c(O)c12 [compound 7, Baicalein]	>9.80	> 500	200	>500	> 500	494 ± 9.64	51 ± 6.48	
O=c1cc(-c2ccc(O)cc2)oc2cc(O)cc(O)c12 [compound 2, Apigenin]	<1.82		50	90.88 ± 3.13			> 50	
O=c1c(O[C@@H]2O[C@H](CO)[C@@H](O)[C@H](O)[C@H]2O)c(-c2ccc(O)cc2)oc2cc(O)cc(O)c12 [compound 17, Astragalin]	>3.76	> 500	300	>500	> 500	> 500	133 ± 16.2	
O=c1c(O[C@@H]2O[C@H](CO)[C@H](O)[C@H](O)[C@H]2O)c(-c2ccc(O)c(O)c2)oc2cc(O)cc(O)c12 [compound 19, Hyperoside]	>6.02	> 500	300	>500	> 500	> 500	83.1 ± 10.7	
O=C(O[C@@H]1Cc2c(O)cc(O)cc2O[C@@H]1c1ccc(O)c(O)c1)c1cc(O)c(O)c(O)c1 [compound 24, (-)-Epicatechin gallate]	>8.51	> 500	300	>500	> 500	> 500	58.8 ± 3.25	
Oc1cc(O)c2c(c1)O[C@H](c1ccc(O)c(O)c1)[C@H](O)C2 [compound 22, (-)-Epicatechin]	>3.43	> 500	300	>500	> 500	> 500	146 ± 20.8	
Oc1cc(O)c2c(c1)O[C@H](c1ccc(O)c(O)c1)[C@H](O)[C@H]2c1c(O)cc(O)c2c1O[C@H](c1ccc(O)c(O)c1)[C@H](O)C2 [compound 28, Procyanidin B-2]			300	>500			> 300	
O=C(O[C@@H]1Cc2c(O)cc(O)cc2O[C@@H]1c1cc(O)c(O)c(O)c1)c1cc(O)c(O)c(O)c1 [compound 25, (-)-Epigallocatechin gallate]		> 500	300	>500	430 ± 6.98	> 500	< 50	31.3 ± 7.4
COc1c(O)cc2oc(-c3ccccc3)cc(=O)c2c1O [compound 8, Oroxylin A]	>8.08	> 300	100	>300	> 300	> 300	< 50	37.1 ± 2.58
O=c1cc(-c2ccccc2)oc2cc(O[C@@H]3O[C@H](CO[C@@H]4O[C@H](CO)[C@@H](O)[C@H](O)[C@H]4O)[C@@H](O)[C@H](O)[C@H]3O)c(O)c(O)c12 [compound 11, Oroxin B]	>2.33	> 300	300	>300	> 300	> 300	129 ± 19	
O=C(O)[C@H]1O[C@@H](Oc2cc3oc(-c4ccccc4)cc(=O)c3c(O)c2O)[C@H](O)[C@@H](O)[C@@H]1O [compound 12, Baicalin]	>4.56	> 500	300	>500	> 500	> 500	110 ± 11	
Oc1cc(O)c2c(c1)O[C@H](c1ccc(O)c(O)c1)[C@H](O)[C@H]2c1c(O)cc(O)c2c1O[C@H](c1ccc(O)c(O)c1)[C@H](O)[C@H]2c1c(O)cc(O)c2c1O[C@H](c1ccc(O)c(O)c1)[C@H](O)C2 [compound 31, Procyanidin C-1]	>2.90	> 500	300	>500	> 500	> 500	173 ± 20.7	
O=C(O[C@@H]1Cc2c(O)cc(O)cc2O[C@H]1c1cc(O)c(O)c(O)c1)c1cc(O)c(O)c(O)c1 [compound 26, (-)-Gallocatechin gallate]	>11.52	> 500	300	>500	433 ± 8.96	> 500	< 50	43.4 ± 2.93
O=c1cc(-c2ccc(O)cc2)oc2cc(O)c(O)c(O)c12 [compound 9, Scutellarein]	>10.25	> 300	200	>300	> 300	> 300	< 50	29.3 ± 0.74
COc1c(O[C@@H]2O[C@H](C(=O)O)[C@@H](O)[C@H](O)[C@H]2O)cc(O)c2c(=O)cc(-c3ccccc3)oc12 [compound 13, Wogonoside]	>4.20	> 500	300	>500	> 500	> 500	119 ± 21	
Oc1cc(O)c2c(c1)O[C@H](c1ccc(O)c(O)c1)[C@@H](O)[C@@H]2c1c(O)cc(O)c2c1O[C@H](c1ccc(O)c(O)c1)[C@@H](O)C2 [compound 29, Procyanidin B-3]			300	>500			> 300	
O=c1cc(-c2ccccc2)oc2cc(O)cc(O)c12 [compound 1, Chrysin]	<1.69		100	168.50 ± 12.06			> 100	
CC1OC(OC2C(c3c(O)cc(O)c4c(=O)cc(-c5ccc(O)cc5)oc34)OC(CO)C(O)C2O)C(O)C(O)C1O (centres unmarked) [compound 6, Vitexin-2″-O-rhamnoside]			300	>500			> 300	
O=c1cc(-c2ccc(O)c(O)c2)oc2cc(O)cc(O)c12 [compound 3, Luteolin]		> 300	200	>300	183 ± 10.3	> 300		
O=c1cc(-c2ccc(O)cc2)oc2c([C@@H]3O[C@H](CO)[C@@H](O)[C@H](O)[C@H]3O)c(O)cc(O)c12 [compound 4, Vitexin]			300	>500			> 300	
Oc1cc(O)c2c(c1)O[C@H](c1ccc(O)c(O)c1)[C@H](O)[C@H]2c1c(O)cc(O)c2c1O[C@H](c1ccc(O)c(O)c1)[C@@H](O)C2 [compound 27, Procyanidin B-1]			300	>500			> 300	
